Here are results for 17 compounds from patent publication US20230116602A1, “MCL1 INHIBITORS AND USES THEREOF” (California Institute of Technology, priority 2019, published 2023).

As a reminder, the Kd is the free concentration of one partner at which half of the binding sites on the other are occupied at equilibrium, for simple one-to-one binding. Usually IC50 stands for the concentration that gives 50% inhibition.

One test deals with BCLXL (Homo sapiens, UniProt Q07817). The experiment in a line: BCLXL affinity assay (competition binding, qPCR readout). To be noted: recombinant BCLXL, 11-point 3-fold dilution series. The procedure:
(§1) Recombinant MCL1, BCL2 and BCXL proteins were prepared in either an E. coli host derived from the BL21 strain or in HEK-293 cells. The recombinant proteins were subsequently tagged with DNA for qPCR detection. Streptavidin-coated magnetic beads were treated for 30 minutes at room temperature with the respective biotinylated peptide ligands for each recombinant protein to generate affinity resins for the assays. The liganded beads were blocked with excess biotin and washed with blocking buffer (SeaBlock (Pierce), 1% BSA, 0.05% Tween 20, 1 mM DTT) to remove unbound ligand and to reduce nonspecific binding. Binding reactions were assembled by combining recombinant protein, liganded affinity beads, and test compounds in 1× binding buffer (20% SeaBlock, 0.17×PBS, 0.05% Tween 20, 6 mM DTT). Test compounds were prepared as 111X stocks in 100% DMSO. The compounds were then diluted directly into the assays such that the final concentration of DMSO was 0.9%. The assay plates were incubated at room temperature with shaking for 1 hour and the affinity beads were washed with wash buffer (1×PBS, 0.05% Tween 20). The beads were then re-suspended in elution buffer (1×PBS, 0.05% Tween 20, 0.5 μM non-biotinylated affinity ligand) and incubated at room temperature with shaking for 30 minutes. The recombinant protein concentration in the eluates was measured by qPCR. Kds were determined using an 11-point 3-fold compound dilution series with three DMSO control points.

Another test addresses BCL2 (Homo sapiens, UniProt P10415). The experiment in a line: BCL2 affinity assay (competition binding, qPCR readout). To be noted: recombinant BCL2, 11-point 3-fold dilution series. As for the experimental part: as §1
For orientation: Quantitative PCR measures a nucleic acid by following its amplification.

The subject of test [1] is drug-sensitive cell lines of Table 3. The experiment in a line: Cell line growth retardation assay, sensitive cohort. In kind it is cell-based, Human. The settings on record: for IC50: Homo sapiens, 144 h, arithmetic mean of IC50s over the sensitive cohort of Table 3, 6 days growth, read-out: AvgSen IC50; for Fold Diff: average IC50 of resistant cohort divided by average IC50 of sensitive cohort. In outline: (§2)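 Cell lines classed as MCL1-inhibition sensitive or resistant were seeded, rested 24 h, then exposed to 10–0.0032 μM compound for 6 days. Cells were counted by imaging; growth inhibition was the ratio of population doublings with vs without compound from a pre-treatment baseline. IC50 from curve fits, averaged per cohort.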

For the next test, the target named is MCL1 (Homo sapiens, UniProt Q07820). The experiment in a line: MCL1 affinity assay (competition binding, qPCR readout). To be noted: recombinant MCL1, 11-point 3-fold dilution series. The procedure, abridged:
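Competition binding: DNA-tagged recombinant protein (E. coli BL21-derived or HEK-293), biotinylated peptide ligand-loaded streptavidin beads and compound incubated 1 hour at room temperature, 0.9% DMSO final. Bound protein eluted with 0.5 μM non-biotinylated ligand and quantified by qPCR; Kd from 11-point 3-fold dilution series.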

Test [2] concerns drug-resistant cell lines of Table 3. The experiment in a line: Cell line growth retardation assay, resistant cohort. In kind it is cell-based, Human. To be noted: Homo sapiens, 144 h; arithmetic mean of IC50s over the resistant cohort of Table 3, 6 days growth; read-out: AvgRes IC50. In outline: as §2

MCL1, sequence (Q07820 whole entry): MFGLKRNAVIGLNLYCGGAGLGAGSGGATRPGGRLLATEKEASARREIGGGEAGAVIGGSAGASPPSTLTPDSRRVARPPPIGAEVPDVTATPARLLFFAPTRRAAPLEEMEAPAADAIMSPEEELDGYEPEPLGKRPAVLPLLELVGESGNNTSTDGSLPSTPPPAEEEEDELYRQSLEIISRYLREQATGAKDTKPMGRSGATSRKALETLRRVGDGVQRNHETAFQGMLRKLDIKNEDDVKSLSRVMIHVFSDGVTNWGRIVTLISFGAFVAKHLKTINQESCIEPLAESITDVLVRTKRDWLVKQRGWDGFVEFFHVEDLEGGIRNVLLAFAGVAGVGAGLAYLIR
BCL2, sequence (P10415 whole entry): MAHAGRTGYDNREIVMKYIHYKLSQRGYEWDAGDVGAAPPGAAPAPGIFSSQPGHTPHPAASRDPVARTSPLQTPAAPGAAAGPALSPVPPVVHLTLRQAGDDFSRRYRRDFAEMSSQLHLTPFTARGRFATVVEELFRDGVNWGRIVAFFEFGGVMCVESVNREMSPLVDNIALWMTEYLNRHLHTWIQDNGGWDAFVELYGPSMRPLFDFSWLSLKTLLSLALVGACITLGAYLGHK
BCLXL, sequence (Q07817 whole entry): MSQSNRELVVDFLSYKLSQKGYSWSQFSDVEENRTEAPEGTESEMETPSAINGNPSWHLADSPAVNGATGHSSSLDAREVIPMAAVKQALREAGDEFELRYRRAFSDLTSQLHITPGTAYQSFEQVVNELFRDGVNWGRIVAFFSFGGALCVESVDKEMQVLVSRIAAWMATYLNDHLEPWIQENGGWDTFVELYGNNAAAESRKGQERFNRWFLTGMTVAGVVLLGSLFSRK

For the compound `Cc1c(-c2c(-c3cccc4c3sc3ccccc34)ncc3snc(O[C@H](Cc4ccccc4OCc4ccnn4CC(F)(F)F)C(=O)O)c23)ccc(OCCN2CCN(C)CC2)c1Cl` (atropisomer, axis not shown) [Compound 9], the Kd at BCLXL, at BCL2 and at MCL1 was over 1.5 µM each time. The IC50 in test [1] and in test [2] was over 5 µM throughout. The “Fold Diff” value in test [1] is reported as “− (“−” represents a fold difference less than 10)”.
With `Cc1c(-c2c(-c3ccc4c(ccn4C)c3)ncc3snc(O[C@H](Cc4ccccc4OCc4ccnn4CC(F)(F)F)C(=O)O)c23)ccc(OCCN2CCN(C)CC2)c1Cl` (atropisomer, axis not shown) [Compound 10], the Kd on BCLXL, at BCL2 and at MCL1 was over 1.5 µM throughout. Further, the IC50 in test [1] and in test [2] was over 5 µM in each case. Further, the “Fold Diff” value in test [1] is recorded as “− (“−” represents a fold difference less than 10)”.
For `Cc1c(-c2c(-c3cccc4c3NC(=O)C4)ncc3snc(O[C@H](Cc4ccccc4OCc4ccnn4CC(F)(F)F)C(=O)O)c23)ccc(OCCN2CCN(C)CC2)c1Cl` (atropisomer, axis not shown) [Compound 12], the Kd on BCLXL, at BCL2 and at MCL1 was over 1.5 µM throughout. The IC50 in test [1] and in test [2] was over 5 µM in each case. Further, the “Fold Diff” value in test [1] was “− (“−” represents a fold difference less than 10)”.
In the case of `Cc1c(-c2c(-c3cccc4c3CCC4)ncc3snc(O[C@H](Cc4ccccc4OCc4ccnn4CC(F)(F)F)C(=O)O)c23)ccc(OCCN2CCN(C)CC2)c1Cl` (atropisomer, axis not shown) [Compound 13], the Kd on BCLXL, on BCL2 and at MCL1 was over 1.5 µM in each case. Further, the IC50 in test [1] and in test [2] was over 5 µM each time. Besides, in test [1], the “Fold Diff” value is on record as “− (“−” represents a fold difference less than 10)”.
For the compound `Cc1c(-c2c(-c3ccc(F)c4ccoc34)ncc3snc(O[C@H](Cc4ccccc4OCc4ccnn4CC(F)(F)F)C(=O)O)c23)ccc(OCCN2CCN(C)CC2)c1Cl` (atropisomer, axis not shown) [Compound 14], the results for the Kd on BCLXL, on BCL2 and at MCL1 were over 1.5 µM, over 1.5 µM and 0.101 to 0.5 µM, respectively. Further, the IC50 in test [1] is 1 to 5 µM; in test [2] it was over 5 µM. In test [1], the “Fold Diff” value is on record as “− (“−” represents a fold difference less than 10)”.
As for `Cc1c(-c2c(-c3cccc4c3ccn4C)ncc3snc(O[C@H](Cc4ccccc4OCc4ccnn4CC(F)(F)F)C(=O)O)c23)ccc(OCCN2CCN(C)CC2)c1Cl` (atropisomer, axis not shown) [Compound 15], the results for the Kd at BCLXL, on BCL2 and on MCL1 were over 1.5 µM, 0.501 to 1.5 µM and 0.501 to 1.5 µM, respectively. The IC50 in test [1] and in test [2] was over 5 µM each time. Moreover, the “Fold Diff” value in test [1] is given as “− (“−” represents a fold difference less than 10)”.
Turning to `Cc1c(-c2c(-c3cccc4[nH]c(C(F)(F)F)cc34)ncc3snc(O[C@H](Cc4ccccc4OCc4ccnn4CC(F)(F)F)C(=O)O)c23)ccc(OCCN2CCN(C)CC2)c1Cl` (atropisomer, axis not shown) [Compound 16], the Kd at BCLXL, on BCL2 and at MCL1 was over 1.5 µM in each case. Besides, the IC50 in test [1] and in test [2] was over 5 µM throughout. In addition, the “Fold Diff” value in test [1] is reported as “− (“−” represents a fold difference less than 10)”.
Consider `Cc1cc2cccc(-c3ncc4snc(O[C@H](Cc5ccccc5OCc5ccnn5CC(F)(F)F)C(=O)O)c4c3-c3ccc(OCCN4CCN(C)CC4)c(Cl)c3C)c2[nH]1` (atropisomer, axis not shown) [Compound 17], for which the Kd was over 1.5 µM on BCLXL, over 1.5 µM at BCL2 and 0.501 to 1.5 µM on MCL1. Moreover, the IC50 in test [1] and in test [2] was over 5 µM throughout. In addition, the “Fold Diff” value in test [1] is given as “− (“−” represents a fold difference less than 10)”.
With `Cc1c(-c2c(-c3cccc4cc[nH]c34)ncc3snc(O[C@H](Cc4ccccc4OCc4ccnn4CC(F)(F)F)C(=O)O)c23)ccc(OCCN2CCN(C)CC2)c1Cl` (atropisomer, axis not shown) [Compound 18], the dissociation constant (Kd) at BCLXL, at BCL2 and on MCL1 was over 1.5 µM in each case. For the same compound, the IC50 in test [1] and in test [2] was over 5 µM in each case. The “Fold Diff” value in test [1] was “− (“−” represents a fold difference less than 10)”.
With `Cc1c(-c2c(-c3csc4ccccc34)ncc3snc(O[C@H](Cc4ccccc4OCc4ccnn4CC(F)(F)F)C(=O)O)c23)ccc(OCCN2CCN(C)CC2)c1Cl` (atropisomer, axis not shown) [Compound 19], the Kd on BCLXL, on BCL2 and on MCL1 was over 1.5 µM throughout. The figures for the IC50 in test [1] and in test [2] were 1 to 5 µM and over 5 µM, respectively. Moreover, in test [1], the “Fold Diff” value is “− (“−” represents a fold difference less than 10)”.
Regarding `Cc1c(-c2c(-c3cn(C)c4ccccc34)ncc3snc(O[C@H](Cc4ccccc4OCc4ccnn4CC(F)(F)F)C(=O)O)c23)ccc(OCCN2CCN(C)CC2)c1Cl` (atropisomer, axis not shown) [Compound 20], the Kd was over 1.5 µM on BCLXL, over 1.5 µM on BCL2 and 0.501 to 1.5 µM on MCL1. Also, the IC50 in test [1] and in test [2] was over 5 µM each time. The “Fold Diff” value in test [1] is “− (“−” represents a fold difference less than 10)”.
Take `Cc1c(-c2c(-c3cccc4ccoc34)ncc3snc(O[C@H](Cc4ccccc4OCc4ccnn4CC(F)(F)F)C(=O)O)c23)ccc(OCCN2CCN(C)CC2)c1Cl` (atropisomer, axis not shown) [Compound 21]: the results for the Kd at BCLXL, on BCL2 and on MCL1 were over 1.5 µM, over 1.5 µM and 0.101 to 0.5 µM, respectively. In addition, the IC50 in test [1] was 1 to 5 µM; in test [2], over 5 µM. The “Fold Diff” value in test [1] is given as “− (“−” represents a fold difference less than 10)”.
Regarding `Cc1c(-c2c(-c3cccc(C(F)(F)F)c3)ncc3snc(O[C@H](Cc4ccccc4OCc4ccnn4CC(F)(F)F)C(=O)O)c23)ccc(OCCN2CCN(C)CC2)c1Cl` (atropisomer, axis not shown) [Compound 22], the Kd on BCLXL is over 1.5 µM; at BCL2, over 1.5 µM; at MCL1, 0.501 to 1.5 µM. For the same compound, the figures for the IC50 in test [1] and in test [2] were 1 to 5 µM and over 5 µM, respectively. Also, in test [1], the “Fold Diff” value is listed as “− (“−” represents a fold difference less than 10)”.
`COc1cccc(-c2ncc3snc(O[C@H](Cc4ccccc4OCc4ccnn4CC(F)(F)F)C(=O)O)c3c2-c2ccc(OCCN3CCN(C)CC3)c(Cl)c2C)c1` (atropisomer, axis not shown) [Compound 23]: the Kd at BCLXL was over 1.5 µM; at BCL2, over 1.5 µM; on MCL1 it was 0.101 to 0.5 µM. Moreover, the IC50 was at most 1 µM in test [1] and over 5 µM in test [2]. Moreover, the “Fold Diff” value in test [1] is recorded as “+ (“+” represents a fold difference of 10 or more)”.
For `Cc1c(-c2c(-c3cccc4ccsc34)ncc3snc(O[C@H](Cc4ccccc4OCc4ccnn4CC(F)(F)F)C(=O)O)c23)ccc(OCCN2CCN(C)CC2)c1Cl` (atropisomer, axis not shown) [Compound 24], the Kd on BCLXL, on BCL2 and at MCL1 was over 1.5 µM each time. Moreover, the IC50 is 1 to 5 µM in test [1] and over 5 µM in test [2]. The “Fold Diff” value in test [1] is recorded as “− (“−” represents a fold difference less than 10)”.
For `Cc1c(-c2c(-c3cccc(F)c3)ncc3snc(O[C@H](Cc4ccccc4OCc4ccnn4CC(F)(F)F)C(=O)O)c23)ccc(OCCN2CCN(C)CC2)c1Cl` (atropisomer, axis not shown) [Compound 26], the Kd at BCLXL was over 1.5 µM; on BCL2 it was over 1.5 µM; on MCL1, 0.101 to 0.5 µM. Besides, the results for the 50% inhibitory concentration (IC50) in test [1] and in test [2] were at most 1 µM and over 5 µM, respectively. Besides, the “Fold Diff” value in test [1] was “+ (“+” represents a fold difference of 10 or more)”.
As to `Cc1c(-c2c(-c3ccsc3)ncc3snc(O[C@H](Cc4ccccc4OCc4ccnn4CC(F)(F)F)C(=O)O)c23)ccc(OCCN2CCN(C)CC2)c1Cl` (atropisomer, axis not shown) [Compound 27], the Kd on BCLXL was over 1.5 µM; at BCL2, over 1.5 µM; at MCL1 it was 0.101 to 0.5 µM. The IC50 in test [1] was 1 to 5 µM; in test [2] it was over 5 µM. Further, in test [1], the “Fold Diff” value is given as “− (“−” represents a fold difference less than 10)”.
